Measurements from patent publication US20140051650A1, “VAGINAL COMPOSITIONS BASED ON ALKYL POLYGLUCOSIDES” (EFFIK S.A., priority 2011, published 2014).

How the values were obtained:
Format in all cases: cell-based
[1] = system: Streptococcus agalactiae; test: Minimum Inhibitory Concentration (MIC) on agarised medium against Streptococcus agalactiae
Method: The assay was carried out on an M-Ha medium+blood at 5%. The medium was prepared at a concentration 33% higher with respect to the final one used in the test corresponding to the one indicated by the supplier. After sterilisation in autoclave, the medium was balanced at the temperature of 48° C. and added with horse blood at the concentration of 6.6% (33% higher than the final concentration of the assay). 15 ml aliquots of M-Ha medium+blood were transferred into 50 ml falcon test tubes maintained at 48° C., added with 5 ml of the dilutions of the substances to be assayed, mixed, poured into Petri dishes and left to solidify. Twenty-five bacterial inoculums, each with approximate volume of about 5 μl and containing about 10^5 ufc, were deposited on the surface of the M-Ha medium+blood of each plate. After incubation at 37° C. for 18 hours the minimum inhibitory concentration (MIC) defined as the minimum concentration of substance capable of inhibiting a bacterial growth noticeable to the naked eye at the area of deposition of the inoculums was read.
In the test with Streptococcus agalactiae the minimum inhibitory concentrations in the assay in liquid medium, regarding which only the bactericide minimum concentration values are indicated, could not be determined with sufficient reliability due to the turbidity of the solutions containing the substances. “Determination of the Minimum Inhibitory Concentration on Agarised Medium” was carried out to obtain the MIC values.

[2] = system: Lactobacillus crispatus NCIMB 4505; test: MIC against Lactobacillus crispatus; settings: substance alone
Method: (§1) The vaginal lactobacillus strains used are the NCIMB 4505 strain of Lactobacillus crispatus, the NCIMB 13279 strain of Lactobacillus jensenii and NCIMB 702820 strain of Lactobacillus gasseri. [table] The other assayed microbial strains were cultured in the liquid media and in the incubation conditions specified in table A, following the operating procedure described above. The assay was carried out in 96-well microtitre plates. 50 μl of substance solution at the “mother” concentration alongside 50 μl of liquid medium at double concentration were deposited in the first well of each of the 8 rows while 50 μl of liquid medium at normal concentration were deposited in the remaining 11 wells. Starting from the first well of each row, 50 μl volumes were transferred from each well to the subsequent one 10 times, thus obtaining a series of 11 dilutions after doubling. The 12th well of each row was kept substance-free as a function of positive control of the bacterial growth. Subsequently, 50 μl of diluted bacterial inoculum as specified previously were deposited in all wells of the plate, except for the 11th of each row. Only the liquid medium at single concentration but bacteria-free, was deposited in the 11th well, with the aim of providing negative control for each row. The described scheme was used for the assay with each of the assayed microbial strains. […]

[3] = system: Lactobacillus crispatus NCIMB 4505; test: MBC against Lactobacillus crispatus; settings: substance alone
Method: (§2) The vaginal lactobacillus strains used are the NCIMB 4505 strain of Lactobacillus crispatus, the NCIMB 13279 strain of Lactobacillus jensenii and NCIMB 702820 strain of Lactobacillus gasseri. [table] The other assayed microbial strains were cultured in the liquid media and in the incubation conditions specified in table A, following the operating procedure described above. Immediately after determining the value of the MIC for each substance, a volume equivalent to 50 μl was taken from each well and streaked on the surface of plates containing the solid medium. The plates were subsequently incubated at the conditions indicated for each microbial strain. After incubation at 37° C. for 24 hours, the number of colonies grown on the medium surface was counted thus determining the number of bacteria that survived after 24 hours of contact with the substance at the concentration present in the well. The MBC value defined as the lowest concentration of each substance capable of reducing the bacterial load by 99.9% in the previously defined assay conditions was determined through comparison between the number of bacteria that survived in each well and that of the bacterial inoculum deposited initially.

[4] = system: Lactobacillus jensenii NCIMB 13279; test: MBC against Lactobacillus jensenii; settings: substance alone
Method: as §2

[5] = system: Lactobacillus gasseri NCIMB 702820; test: MIC against Lactobacillus gasseri; settings: substance alone
Method: as §1

[6] = system: Lactobacillus gasseri NCIMB 702820; test: MBC against Lactobacillus gasseri; settings: substance alone
Method: as §2

| Substance | MIC (minimum inhibiting concentration) ([1]; strain 2, substance alone) | MIC (minimum inhibiting concentration) ([1]; strain 5, substance alone) | MIC (minimum inhibiting concentration) ([1]; strain 6, substance alone) | MIC (minimum inhibiting concentration) ([1]; strain 7, substance alone) | MIC (minimum inhibiting concentration) ([1]; strain 8, substance alone) | MIC (minimum inhibiting concentration) ([1]; strain 9, substance alone) | MIC (minimum inhibiting concentration) ([1]; strain 10, substance alone) | MIC (minimum inhibiting concentration) ([1]; strain 11, substance alone) | MIC (minimum inhibiting concentration) ([1]; strain 12, substance alone) | MIC (minimum inhibiting concentration) ([1]; strain 13, substance alone) | MIC (minimum inhibiting concentration) ([1]; strain 14, substance alone) | MIC (minimum inhibiting concentration) ([1]; strain 15, substance alone) | MIC (minimum inhibiting concentration) ([1]; strain 16, substance alone) | MIC (minimum inhibiting concentration) ([1]; strain 17, substance alone) | MIC (minimum inhibiting concentration) ([1]; strain 18, substance alone) | MIC (minimum inhibiting concentration) ([1]; strain 19, substance alone) | MIC (minimum inhibiting concentration) ([1]; strain 20, substance alone) | MIC (minimum inhibiting concentration) ([1]; strain 21, substance alone) | MIC (minimum inhibiting concentration) ([1]; strain 22, substance alone) | MIC (minimum inhibiting concentration) ([1]; strain 23, substance alone) | further results |
| --- | --- | --- | --- | --- | --- | --- | --- | --- | --- | --- | --- | --- | --- | --- | --- | --- | --- | --- | --- | --- | --- |
| caprylyl/capryl glucoside/C8-C10 alkyl polyglucoside [Substance A1] | 0.093% | 0.093% | 0.048% | 0.093% | 0.19% | 0.093% | 0.19% | 0.093% | 0.093% | 0.093% | 0.093% | 0.048% | 0.093% | 0.048% | 0.19% | 0.093% | 0.048% | 0.048% | 0.093% | 0.093% | MIC (minimum inhibiting concentration) ([1]; strain 24, substance alone): 0.093%; MIC (minimum inhibiting concentration) ([1]; strain 25, substance alone): 0.048%; MIC (minimum inhibiting concentration) ([1]; strain 12386, substance alone): 0.093%; MIC (minimum inhibiting concentration) ([1]; strain 12403, substance alone): 0.093%; MIC (minimum inhibiting concentration) ([1]; strain 27956, substance alone): 0.093%; MIC [2]: 0.097%; MBC [3]: 0.193%; MBC [4]: 0.193%; MIC [5]: 0.097%; MBC [6]: 0.193% |
| lauryl glucoside/C12-C16 alkyl polyglucoside [Substance A2] | 0.0097% | 0.019% | 0.0097% | 0.0097% | 0.019% | 0.0097% | 0.019% | 0.0097% | 0.0097% | 0.0097% | 0.0097% | 0.019% | 0.0097% | 0.0097% | 0.019% | 0.0097% | 0.0097% | 0.0097% | 0.0097% | 0.0097% | MIC (minimum inhibiting concentration) ([1]; strain 24, substance alone): 0.0097%; MIC (minimum inhibiting concentration) ([1]; strain 25, substance alone): 0.0097%; MIC (minimum inhibiting concentration) ([1]; strain 12386, substance alone): 0.0097%; MIC (minimum inhibiting concentration) ([1]; strain 12403, substance alone): 0.0097%; MIC (minimum inhibiting concentration) ([1]; strain 27956, substance alone): 0.019%; MIC [2]: 0.038%; MBC [3]: 0.077%; MBC [4]: 0.077%; MIC [5]: 0.077%; MBC [6]: 0.077% |
